For test [1], the target named is T1, Peroxisome proliferator-activated receptor gamma (Homo sapiens, UniProt P37231).
T1 sequence (P37231 whole entry): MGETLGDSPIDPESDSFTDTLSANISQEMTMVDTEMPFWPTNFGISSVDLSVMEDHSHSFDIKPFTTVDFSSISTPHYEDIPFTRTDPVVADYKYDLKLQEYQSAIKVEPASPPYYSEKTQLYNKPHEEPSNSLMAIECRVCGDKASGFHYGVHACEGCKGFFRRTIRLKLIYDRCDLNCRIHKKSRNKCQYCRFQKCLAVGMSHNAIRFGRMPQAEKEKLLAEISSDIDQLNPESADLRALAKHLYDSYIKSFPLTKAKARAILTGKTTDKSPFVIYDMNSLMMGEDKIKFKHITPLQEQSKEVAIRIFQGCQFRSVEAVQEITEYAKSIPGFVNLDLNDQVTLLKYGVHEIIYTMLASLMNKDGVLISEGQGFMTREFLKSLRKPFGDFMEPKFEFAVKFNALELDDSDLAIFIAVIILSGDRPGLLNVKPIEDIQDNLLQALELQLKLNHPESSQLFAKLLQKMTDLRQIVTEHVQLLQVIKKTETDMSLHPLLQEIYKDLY
It counts as functional.

For test [2], the target named is T1, Peroxisome proliferator-activated receptor gamma. Format: functional. The source holds these as a separate data set.
For test [3], the target named is Vascular endothelial growth factor receptor 2 (Homo sapiens, UniProt P35968). It counts as functional.
Sequence of Vascular endothelial growth factor receptor 2 (P35968 whole entry): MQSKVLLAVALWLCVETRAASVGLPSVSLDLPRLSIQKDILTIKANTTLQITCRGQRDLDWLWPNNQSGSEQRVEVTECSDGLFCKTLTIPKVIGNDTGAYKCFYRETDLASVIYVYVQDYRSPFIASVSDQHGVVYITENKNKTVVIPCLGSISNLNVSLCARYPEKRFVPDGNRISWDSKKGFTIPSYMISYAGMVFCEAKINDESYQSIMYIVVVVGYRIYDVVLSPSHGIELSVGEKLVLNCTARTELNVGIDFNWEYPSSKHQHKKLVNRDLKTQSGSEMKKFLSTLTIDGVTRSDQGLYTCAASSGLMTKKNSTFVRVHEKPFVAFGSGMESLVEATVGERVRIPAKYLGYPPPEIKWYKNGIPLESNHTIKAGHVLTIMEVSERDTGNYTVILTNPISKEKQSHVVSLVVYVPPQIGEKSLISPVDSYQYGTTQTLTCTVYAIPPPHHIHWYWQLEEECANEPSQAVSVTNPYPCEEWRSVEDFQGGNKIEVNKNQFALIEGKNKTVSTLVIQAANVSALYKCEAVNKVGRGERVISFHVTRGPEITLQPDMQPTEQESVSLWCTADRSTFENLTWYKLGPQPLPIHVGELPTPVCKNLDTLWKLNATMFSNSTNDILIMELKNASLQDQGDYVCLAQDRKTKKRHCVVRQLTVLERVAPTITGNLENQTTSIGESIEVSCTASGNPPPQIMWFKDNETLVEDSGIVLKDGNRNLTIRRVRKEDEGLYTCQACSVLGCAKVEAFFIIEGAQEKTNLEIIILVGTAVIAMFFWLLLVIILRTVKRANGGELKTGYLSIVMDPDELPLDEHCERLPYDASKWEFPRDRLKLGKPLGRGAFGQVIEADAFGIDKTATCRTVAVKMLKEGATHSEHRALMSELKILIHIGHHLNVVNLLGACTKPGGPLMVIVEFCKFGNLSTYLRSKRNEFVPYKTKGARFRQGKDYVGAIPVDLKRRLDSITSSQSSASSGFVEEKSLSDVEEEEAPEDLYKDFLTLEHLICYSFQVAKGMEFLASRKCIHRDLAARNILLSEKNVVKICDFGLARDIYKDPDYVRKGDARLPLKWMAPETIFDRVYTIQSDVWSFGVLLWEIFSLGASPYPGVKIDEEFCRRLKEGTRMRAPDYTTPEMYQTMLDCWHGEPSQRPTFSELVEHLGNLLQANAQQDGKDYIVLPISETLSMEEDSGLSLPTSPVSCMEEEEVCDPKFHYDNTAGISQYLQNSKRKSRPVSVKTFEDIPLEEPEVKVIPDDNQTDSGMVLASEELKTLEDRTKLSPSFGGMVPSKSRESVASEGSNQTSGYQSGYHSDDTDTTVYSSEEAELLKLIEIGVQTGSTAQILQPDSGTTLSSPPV
Test [4] deals with D(1A) dopamine receptor (Homo sapiens, UniProt P21728).
Sequence of D(1A) dopamine receptor (P21728 whole entry): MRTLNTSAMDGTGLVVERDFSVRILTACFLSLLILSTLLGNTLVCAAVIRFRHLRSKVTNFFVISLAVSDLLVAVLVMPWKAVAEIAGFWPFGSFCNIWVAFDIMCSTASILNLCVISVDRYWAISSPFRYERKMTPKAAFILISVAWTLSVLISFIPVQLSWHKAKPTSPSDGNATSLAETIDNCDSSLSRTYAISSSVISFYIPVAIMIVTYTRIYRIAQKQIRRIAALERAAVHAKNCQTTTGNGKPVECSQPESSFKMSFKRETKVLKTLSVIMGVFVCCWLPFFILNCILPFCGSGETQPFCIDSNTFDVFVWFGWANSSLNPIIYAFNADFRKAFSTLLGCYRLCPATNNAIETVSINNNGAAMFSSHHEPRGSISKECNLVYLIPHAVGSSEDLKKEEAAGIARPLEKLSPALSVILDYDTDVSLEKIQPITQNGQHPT
The target of test [5] is T2, Estrogen receptor (Homo sapiens, UniProt P03372).
T2 sequence (P03372 whole entry): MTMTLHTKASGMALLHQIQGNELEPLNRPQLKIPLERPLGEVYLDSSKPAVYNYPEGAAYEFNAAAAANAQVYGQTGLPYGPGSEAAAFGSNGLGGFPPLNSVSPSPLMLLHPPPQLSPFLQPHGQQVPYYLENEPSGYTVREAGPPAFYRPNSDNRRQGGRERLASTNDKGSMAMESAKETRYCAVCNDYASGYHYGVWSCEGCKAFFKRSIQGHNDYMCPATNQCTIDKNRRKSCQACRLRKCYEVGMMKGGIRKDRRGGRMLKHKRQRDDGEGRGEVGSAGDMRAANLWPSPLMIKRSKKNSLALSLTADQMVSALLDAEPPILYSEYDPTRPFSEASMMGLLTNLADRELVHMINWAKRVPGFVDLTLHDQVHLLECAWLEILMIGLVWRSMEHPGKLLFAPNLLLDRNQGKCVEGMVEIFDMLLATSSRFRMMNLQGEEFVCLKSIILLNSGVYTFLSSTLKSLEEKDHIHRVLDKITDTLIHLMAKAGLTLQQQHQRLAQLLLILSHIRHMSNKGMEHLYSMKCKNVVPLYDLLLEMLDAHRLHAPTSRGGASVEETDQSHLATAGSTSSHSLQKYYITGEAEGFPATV

In test [6] the target is T3, Endothelin receptor type B (Homo sapiens, UniProt P24530).
T3 sequence (P24530 whole entry): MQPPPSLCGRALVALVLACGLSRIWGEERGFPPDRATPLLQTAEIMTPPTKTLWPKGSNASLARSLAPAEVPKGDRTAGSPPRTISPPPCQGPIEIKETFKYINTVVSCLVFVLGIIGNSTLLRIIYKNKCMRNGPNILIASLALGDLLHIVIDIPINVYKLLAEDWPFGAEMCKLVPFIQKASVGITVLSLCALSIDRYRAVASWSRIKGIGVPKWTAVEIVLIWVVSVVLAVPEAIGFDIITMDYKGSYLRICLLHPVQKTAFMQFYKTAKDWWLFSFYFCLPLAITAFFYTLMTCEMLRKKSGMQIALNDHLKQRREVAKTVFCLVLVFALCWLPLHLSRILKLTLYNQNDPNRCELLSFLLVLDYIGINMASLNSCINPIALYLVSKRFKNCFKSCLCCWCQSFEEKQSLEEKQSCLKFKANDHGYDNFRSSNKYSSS

Test [7] addresses T4, 5-hydroxytryptamine receptor 1A (Homo sapiens, UniProt P08908).
T4 sequence (P08908 whole entry): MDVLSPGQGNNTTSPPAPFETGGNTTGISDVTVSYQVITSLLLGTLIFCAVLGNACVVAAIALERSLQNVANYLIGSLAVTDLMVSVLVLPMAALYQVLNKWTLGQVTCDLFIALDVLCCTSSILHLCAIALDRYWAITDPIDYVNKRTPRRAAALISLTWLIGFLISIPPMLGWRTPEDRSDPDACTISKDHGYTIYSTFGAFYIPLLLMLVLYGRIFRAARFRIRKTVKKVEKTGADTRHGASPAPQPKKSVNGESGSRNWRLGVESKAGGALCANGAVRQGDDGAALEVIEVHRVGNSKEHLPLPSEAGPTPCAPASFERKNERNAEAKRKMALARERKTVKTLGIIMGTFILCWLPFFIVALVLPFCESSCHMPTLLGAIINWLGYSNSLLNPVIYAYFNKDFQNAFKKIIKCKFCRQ

The target in test [8] is T5, Gastric inhibitory polypeptide receptor (Homo sapiens, UniProt P48546).
T5 sequence (P48546 whole entry): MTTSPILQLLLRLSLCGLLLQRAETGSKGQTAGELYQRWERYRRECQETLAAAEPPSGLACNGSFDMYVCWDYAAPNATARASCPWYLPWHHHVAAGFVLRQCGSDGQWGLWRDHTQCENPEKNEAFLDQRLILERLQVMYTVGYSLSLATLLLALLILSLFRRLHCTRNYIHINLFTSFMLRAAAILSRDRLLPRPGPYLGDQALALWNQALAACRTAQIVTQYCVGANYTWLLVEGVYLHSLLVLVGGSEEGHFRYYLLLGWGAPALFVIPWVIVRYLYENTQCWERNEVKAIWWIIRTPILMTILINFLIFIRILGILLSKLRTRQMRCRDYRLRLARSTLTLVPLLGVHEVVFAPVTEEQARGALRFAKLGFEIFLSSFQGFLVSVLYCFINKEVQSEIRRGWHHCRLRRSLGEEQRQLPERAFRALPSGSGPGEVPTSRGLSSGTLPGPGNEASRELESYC

Test [9] addresses Substance-P receptor (Homo sapiens, UniProt P25103).

What is called AC50 is the midpoint of the concentration-response curve, whichever way the signal moves. Low values mean greater potency, high ones weaker potency.

A value given as a limit tells only on which side of the number the result lay.
Note: assay procedure not described here.

Sequence of Substance-P receptor (P25103 whole entry): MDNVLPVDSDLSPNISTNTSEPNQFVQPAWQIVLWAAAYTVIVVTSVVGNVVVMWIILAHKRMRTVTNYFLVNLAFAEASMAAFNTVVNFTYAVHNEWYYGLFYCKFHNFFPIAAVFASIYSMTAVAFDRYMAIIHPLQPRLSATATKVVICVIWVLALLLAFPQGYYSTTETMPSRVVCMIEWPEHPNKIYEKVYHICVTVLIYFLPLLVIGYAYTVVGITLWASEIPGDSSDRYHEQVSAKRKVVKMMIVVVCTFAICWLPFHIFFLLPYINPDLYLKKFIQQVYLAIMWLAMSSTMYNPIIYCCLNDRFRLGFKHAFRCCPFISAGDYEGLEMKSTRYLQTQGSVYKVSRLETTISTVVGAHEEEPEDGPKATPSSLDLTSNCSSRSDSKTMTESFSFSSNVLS

For `c1ccc([C@H]2CN3CCSC3=N2)cc1` [LEVAMISOLE], the AC50 in test [1], in test [2], in [3] and in test [4] was more than 30 µM throughout.
For the molecule `Cn1nnc2c(C(N)=O)ncn2c1=O` [TEMOZOLOMIDE], the AC50 was more than 30 µM in test [1]; more than 30 µM in [2]; more than 30 µM in test [3]; more than 30 µM in test [5]; more than 30 µM in [6]; more than 10 µM in [4]. The AC50 was more than 10 µM in test [7], more than 30 µM in test [8] and more than 10 µM in test [9].
Regarding `CCCN1C[C@H](CSC)C[C@@H]2c3cccc4[nH]cc(c34)C[C@H]21` [PERGOLIDE], the AC50 in test [1], in test [2], in [3], in test [5], in [6] and in test [8] was more than 30 µM in each case.
In the case of `NCC(CC(=O)O)c1ccc(Cl)cc1` (stereo not drawn) [BACLOFEN], the AC50 in test [1] was more than 30 µM; in test [2], more than 30 µM; in [3], more than 30 µM; in [6] it was more than 30 µM; in test [4], more than 10 µM; in test [7], more than 10 µM. The AC50 was more than 30 µM in test [8] and more than 10 µM in test [9].
Regarding `CNC1Cc2ccccc2N(C)c2ccccc21` (stereo not drawn) [METAPRAMINE], the AC50 in test [1], in [2] and in test [3] was more than 30 µM throughout.
Take `C1CCC(C(CC2CCCCN2)C2CCCCC2)CC1` (stereo not drawn) [PERHEXILINE]: the AC50 in [1], in [2] and in [3] was more than 30 µM throughout.
For `CN(C)CCC=C1c2ccccc2C(C)(C)c2ccccc21`, the AC50 in [1], in test [2] and in test [3] was more than 30 µM in each case.
For `CC(C)C[C@H]1C(=O)N2CCC[C@H]2[C@]2(O)O[C@](NC(=O)[C@@H]3C=C4c5cccc6[nH]c(Br)c(c56)C[C@H]4N(C)C3)(C(C)C)C(=O)N12` [BROMOCRIPTINE], the AC50 in test [1] is more than 30 µM; in test [2], more than 30 µM; in [3], more than 30 µM; in [6], more than 30 µM; in [4], more than 10 µM; in test [7], 0.319 µM. In test [8], the AC50 was more than 30 µM.
Take `C[C@@H](O)[C@H]1C(=O)N2C(C(=O)O)=C(S[C@@H]3CN[C@H](C(=O)N(C)C)C3)[C@H](C)[C@H]12` [MEROPENEM]: the AC50 in [1], in [2] and in test [3] was more than 300 µM in each case.
For `Cc1c(C(=O)NN2CCCCC2)nn(-c2ccc(Cl)cc2Cl)c1-c1ccc(Cl)cc1` [RIMONABANT], the AC50 in test [1] was 17 µM; in [2] it was more than 30 µM; in [3], more than 30 µM; in test [5], more than 30 µM; in test [6], more than 30 µM; in test [7], more than 10 µM. For the same molecule, the AC50 was more than 30 µM in test [8] and more than 10 µM in test [9].
As to `COc1ccc(CC(C)(C)NC[C@H](O)c2cc(O)cc3c2OCC(=O)N3)cc1` [OLODATEROL], the AC50 in [1], in test [2] and in [3] was more than 30 µM each time.
With `C[C@H]1CNCCc2ccc(Cl)cc21` [LORCASERIN], the AC50 in test [1], in test [2] and in [3] was more than 30 µM throughout.
As for `c1cnc(N2CCN(Cc3ccc4c(c3)OCO4)CC2)nc1` [PIRIBEDIL], the AC50 in test [1], in [2] and in [3] was more than 30 µM each time.

The values above are taken from ChEMBL document CHEMBL5291721, “A preclinical secondary pharmacology resource illuminates target-adverse drug reaction associations of marketed drugs” (Nat Commun, 2023).
